Like-named read-outs stand apart in the source and are kept apart here.
Key:
[1] = aqueous media; cited from earlier work
[2] = Solubility of 10-HCPT in aqueous and acid media
[3] = Method: […] […] Quantitatively, 0.01 area % is equivalent to 0.1 μg/mL of 10-HPCT.
The solution was filled into either flint glass vials or polyethylene vials. One portion of the solution was transferred into 5 ml glass vials and another portion was placed into 5 ml PE vials.

[4] = in vivo; cited from earlier work

SMILES | Solubility of 10-HCPT [1] | Solubility of 10-HCPT ([2]; 0.01N HCl containing 3% benzyl alcohol) | Increase of solubility of 10-HCPT ([2]; 0.01N HCl containing 3% benzyl alcohol versus about 2 ng/mL) [fold] | Solubility of 10-HCPT ([2]; 0.1 N HCl) [μg/mL] | Solubility of 10-HCPT ([2]; 0.1 N MSA) | Saturation solubility of 10 HCPT ([2]; 10% lactic acid) [µg/mL] | Solubility of 10 HCPT ([2]; 20% lactic acid solution) [µg/mL] | Concentration of 10-HCPT reached before it precipitates ([2]; formulations prepared in hydrochloric acid, pH 1.5 or less) | Solubility of 10-HCPT ([2]; starting value, without benzyl alcohol) | 10-HCPT formed by degradation ([3]; 5 weeks, 1 mg/ml, pH 3.2) [%] | 10-HCPT formed by degradation ([3]; 12 weeks, 1 mg/mL, pH 1) [%] | 10-HCPT formed by degradation ([3]; 12 weeks, 1 mg/ml, pH 2) [%] | Dose limiting toxicity [4]
CC[C@@]1(O)C(=O)OCc2c1cc1n(c2=O)Cc2cc3cc(O)ccc3nc2-1 [Example 10-HCPT, 10-hydroxycamptothecin] | about 2 ng/ml | about 10 μg/mL | ~5000 | 6 | about 6 μg/mL | 6.4 | 15 | about 4 μg/mL | about 2 ng/mL | – | – | – | –
CC[C@@]1(O)C(=O)OCc2c1cc1n(c2=O)Cc2cc3c(CN(C)C)c(O)ccc3nc2-1 [Topotecan] | – | – | – | – | – | – | – | – | – | 5.64 | 0.07 | 0.6 | neutropenia (bone marrow suppression) and thrombocytopenia

Source: patent US20090221622A1, “TOPOTECAN READY TO USE SOLUTIONS” (EAGLE PHARMACEUTICALS, INC., priority 2008, published 2009)
